Results: patent US6352958B1, “Cycloimido-substituted benzofused heterocyclic herbicides” (FMC Corporation, priority 1997, dated 2002)

Experiments:
Assay type in all cases: in vivo
[1] = tested on: blackgrass (Aloepecurus myosuroides); assay: Preemergence herbicidal activity, blackgrass; details: Alopecurus myosuroides, pre-emergence, Rate of Application 0.3 Kg/Ha, examined after 12-17 days, read-out: PREEMERGENCE HERBICIDAL ACTIVITY (% CONTROL) ALOMY
Description: (§1) The benzofused heterocyclic compounds of this invention were tested for pre- and postemergence herbicidal activity using a variety of crops and weeds. The test plants included soybean (Glycine max var. Winchester), field corn (Zea mays var. Pioneer 3732), wheat (Triticum aestivum var. Lew), morningglory (Ipomea lacunosa or Ipomea hederacea), velvetleaf (Abutilon theophrasti), green foxtail (Setaria viridis), Johnsongrass (Sorghum halepense), blackgrass (Aloepecurus myosuroides), common chickweed (Stellaria media), and common cocklebur (Xanthium strumarium L.).
(§2) For preemergence testing, two disposable fiber flats (8 cm×15 cm×25 cm) for each rate of application of each candidate herbicide were filled to an approximate depth of 6.5 cm with steam-sterilized sandy loam soil. The soil was leveled and impressed with a template to provide five evenly spaced furrows 13 cm long and 0.5 cm deep in each flat. Seeds of soybean, wheat, corn, green foxtail, and johnsongrass were planted in the furrows of the first flat, and seeds of velvetleaf, morningglory, common chickweed, cocklebur, and blackgrass were planted in the furrows of the second flat. The five-row template was employed to firmly press the seeds into place. A topping soil of equal portions of sand and sandy loam soil was placed uniformly on top of each flat to a depth of approximately 0.5 cm. Flats for postemergence testing were prepared in the same manner except that they were planted 9-14 days prior to the preemergence flats and were placed in a greenhouse and watered, thus allowing the seeds to germinate and the foliage to develop.
(§3) In both pre- and postemergence tests, a stock solution of the candidate herbicide was prepared by dissolving 0.27 g of the compound in 20 mL of water/acetone (50/50) containing 0.5% v/v sorbitan monolaurate. For an application rate of 3000 g/ha of herbicide a 10 mL portion of the stock solution was diluted with water/acetone (50/50) to 45 mL.
(§4) The preemergence flats were initially subjected to a light water spray. The four flats were placed two by two along a conveyor belt (i.e., the two preemergence followed by the two postemergence flats). The conveyor belt fed under a spray nozzle mounted about ten inches above the post-emergent foliage. The preemergent flats were elevated on the belt so that the soil surface was at the same level below the spray nozzle as the foliage canopy of the postemergent plants. The spray of herbicidal solution was commenced and once stabilized, the flats were passed under the spray at a speed to receive a coverage equivalent of 100 L/ha. At this coverage the application rates are those shown in the above table for the individual herbicidal solutions. The preemergence flats were watered immediately thereafter, placed in the greenhouse and watered regularly at the soil surface. The postemergence flats were immediately placed in the green-house and not watered until 24 hours after treatment with the test solution. Thereafter they were regularly watered at ground level. After 12-17 days the plants were examined and the phytotoxicity data were recorded.
(§5) Phytotoxicity data were taken as percent control. Percent control was determined by a method similar to the 0 to 100 rating system disclosed in “Research Methods in Weed Science,” 2nd ed., B. Truelove, Ed.; Southern Weed Science Society; Auburn University, Auburn, Ala., 1977.

[2] = tested on: field corn (Zea mays var. Pioneer 3732); assay: Preemergence herbicidal activity, corn; details: Rate of Application 0.3 Kg/Ha, examined after 12-17 days
Description: as §1, §2, §3, §4, §5

[3] = tested on: velvetleaf (Abutilon theophrasti); assay: Postemergence herbicidal activity, velvetleaf; details: rate of application 0.3 Kg/Ha, rated after 12-17 days
Description: as §1, §2, §3, §4, §5

[4] = tested on: field corn (Zea mays var. Pioneer 3732); assay: Postemergence herbicidal activity, corn; details: rate of application 0.3 Kg/Ha, rated after 12-17 days
Description: as §1, §2, §3, §4, §5

[5] = tested on: wheat (Triticum aestivum var. Lew); assay: Preemergence herbicidal activity, wheat; details: Rate of Application 0.3 Kg/Ha, examined after 12-17 days
Description: as §1, §2, §3, §4, §5

[6] = tested on: morningglory (Ipomea lacunosa or Ipomea hederacea); assay: Postemergence herbicidal activity, morningglory; details: rate of application 0.3 Kg/Ha, rated after 12-17 days
Description: as §1, §2, §3, §4, §5

[7] = tested on: Johnsongrass (Sorghum halepense); assay: Postemergence herbicidal activity, johnsongrass; details: rate of application 0.3 Kg/Ha, rated after 12-17 days
Description: as §1, §2, §3, §4, §5

[8] = tested on: Johnsongrass (Sorghum halepense); assay: Preemergence herbicidal activity, johnsongrass; details: Rate of Application 0.3 Kg/Ha, examined after 12-17 days
Description: as §1, §2, §3, §4, §5

[9] = tested on: velvetleaf (Abutilon theophrasti); assay: Preemergence herbicidal activity, velvetleaf; details: Rate of Application 0.3 Kg/Ha, examined after 12-17 days
Description: as §1, §2, §3, §4, §5

[10] = tested on: green foxtail (Setaria viridis); assay: Postemergence herbicidal activity, green foxtail; details: rate of application 0.3 Kg/Ha, rated after 12-17 days
Description: as §1, §2, §3, §4, §5

[11] = tested on: soybean (Glycine max var. Winchester); assay: Postemergence herbicidal activity, soybean; details: rate of application 0.3 Kg/Ha, rated after 12-17 days
Description: as §1, §2, §3, §4, §5

[12] = tested on: wheat (Triticum aestivum var. Lew); assay: Postemergence herbicidal activity, wheat; details: rate of application 0.3 Kg/Ha, rated after 12-17 days
Description: as §1, §2, §3, §4, §5

[13] = tested on: soybean (Glycine max var. Winchester); assay: Preemergence herbicidal activity, soybean; details: Rate of Application 0.3 Kg/Ha, examined after 12-17 days
Description: as §1, §2, §3, §4, §5

[14] = tested on: common cocklebur (Xanthium strumarium L.); assay: Preemergence herbicidal activity, cocklebur; details: Rate of Application 0.3 Kg/Ha, examined after 12-17 days
Description: as §1, §2, §3, §4, §5

[15] = tested on: morningglory (Ipomea lacunosa or Ipomea hederacea); assay: Preemergence herbicidal activity, morningglory; details: Rate of Application 0.3 Kg/Ha, examined after 12-17 days
Description: as §1, §2, §3, §4, §5

[16] = tested on: green foxtail (Setaria viridis); assay: Preemergence herbicidal activity, green foxtail; details: Rate of Application 0.3 Kg/Ha, examined after 12-17 days
Description: as §1, §2, §3, §4, §5

[17] = tested on: common chickweed (Stellaria media); assay: Preemergence herbicidal activity, chickweed; details: Rate of Application 0.3 Kg/Ha, examined after 12-17 days
Description: as §1, §2, §3, §4, §5

[18] = tested on: common cocklebur (Xanthium strumarium L.); assay: Postemergence herbicidal activity, cocklebur; details: rate of application 0.3 Kg/Ha, rated after 12-17 days
Description: as §1, §2, §3, §4, §5

[19] = tested on: common chickweed (Stellaria media); assay: Postemergence herbicidal activity, chickweed; details: rate of application 0.3 Kg/Ha, rated after 12-17 days
Description: as §1, §2, §3, §4, §5

| Structure (SMILES) | PREEMERGENCE HERBICIDAL ACTIVITY (% CONTROL) CRN [2] [%] | Postemergence herbicidal activity (% control) ABUTH [3] [%] | PREEMERGENCE HERBICIDAL ACTIVITY (% CONTROL) STEME [17] [%] | Postemergence herbicidal activity (% control) CRN [4] [%] | PREEMERGENCE HERBICIDAL ACTIVITY (% CONTROL) WHT [5] [%] | Postemergence herbicidal activity (% control) IPOSS [6] [%] | Postemergence herbicidal activity (% control) SORHA [7] [%] | PREEMERGENCE HERBICIDAL ACTIVITY (% CONTROL) SORHA [8] [%] | PREEMERGENCE HERBICIDAL ACTIVITY (% CONTROL) ABUTH [9] [%] | Postemergence herbicidal activity (% control) SETVI [10] [%] | Postemergence herbicidal activity (% control) SOY [11] [%] | Postemergence herbicidal activity (% control) WHT [12] [%] | PREEMERGENCE HERBICIDAL ACTIVITY (% CONTROL) SOY [13] [%] | Postemergence herbicidal activity (% control) XANPE [18] [%] | PREEMERGENCE HERBICIDAL ACTIVITY (% CONTROL) XANPE [14] [%] | PREEMERGENCE HERBICIDAL ACTIVITY (% CONTROL) IPOSS [15] [%] | PREEMERGENCE HERBICIDAL ACTIVITY (% CONTROL) SETVI [16] [%] | Postemergence herbicidal activity (% control) STEME [19] [%] | also measured |
| --- | --- | --- | --- | --- | --- | --- | --- | --- | --- | --- | --- | --- | --- | --- | --- | --- | --- | --- | --- |
| CC(=O)OC(C)(C)c1nc2c(-n3c(=O)cc(C(F)(F)F)n(C)c3=O)c(F)cc(Br)c2o1 [Compound 104, 1-METHYL-6-TRIFLUOROMETHYL-3-[7-BROMO-5-FLUORO-2-(2-METHYLCARBONYLOXYPROP-2-YL)BENZOXAZOL-4-YL]-2,4(1 H,3H)-PYRIMIDINEDIONE] |  |  |  |  |  |  |  |  |  |  |  |  |  |  |  |  |  |  | inhibition at 300 g/ha [1]: 100%; inhibition at 300 g/ha ([2]; Zea mays, pre-emergence, read-out: PREEMERGENCE HERBICIDAL ACTIVITY (% CONTROL) CRN): 100%; inhibition at 300 g/ha ([3]; Abutilon theophrasti, post-emergence, read-out: Postemergence herbicidal activity (% control) ABUTH): 100%; inhibition at 300 g/ha ([4]; Zea mays, post-emergence, read-out: Postemergence herbicidal activity (% control) CRN): 100%; inhibition at 300 g/ha ([5]; Triticum aestivum, pre-emergence, read-out: PREEMERGENCE HERBICIDAL ACTIVITY (% CONTROL) WHT): 100%; inhibition at 300 g/ha ([6]; Ipomoea, post-emergence, read-out: Postemergence herbicidal activity (% control) IPOSS): 100%; inhibition at 300 g/ha ([7]; Sorghum halepense, post-emergence, read-out: Postemergence herbicidal activity (% control) SORHA): 100%; inhibition at 300 g/ha ([8]; Sorghum halepense, pre-emergence, read-out: PREEMERGENCE HERBICIDAL ACTIVITY (% CONTROL) SORHA): 100%; inhibition at 300 g/ha ([9]; Abutilon theophrasti, pre-emergence, read-out: PREEMERGENCE HERBICIDAL ACTIVITY (% CONTROL) ABUTH): 100%; inhibition at 300 g/ha ([10]; Setaria viridis, post-emergence, read-out: Postemergence herbicidal activity (% control) SETVI): 100%; inhibition at 300 g/ha ([11]; Glycine max, post-emergence, read-out: Postemergence herbicidal activity (% control) SOY): 100%; inhibition at 300 g/ha ([12]; Triticum aestivum, post-emergence, read-out: Postemergence herbicidal activity (% control) WHT): 100%; inhibition at 300 g/ha ([13]; Glycine max, pre-emergence, read-out: PREEMERGENCE HERBICIDAL ACTIVITY (% CONTROL) SOY): 100%; inhibition at 300 g/ha ([14]; Xanthium strumarium, pre-emergence, read-out: PREEMERGENCE HERBICIDAL ACTIVITY (% CONTROL) XANPE): 100%; inhibition at 300 g/ha ([15]; Ipomoea, pre-emergence, read-out: PREEMERGENCE HERBICIDAL ACTIVITY (% CONTROL) IPOSS): 100%; inhibition at 300 g/ha ([16]; Setaria viridis, pre-emergence, read-out: PREEMERGENCE HERBICIDAL ACTIVITY (% CONTROL) SETVI): 100% |
| CCCCc1cc2c(Cl)ccc(-n3c(=O)cc(C(F)(F)F)n(C)c3=O)c2o1 [Compound 225] | 30 | 100 | 70 | 60 | 20 | 75 | 60 | 60 | 90 | 90 | 60 | 30 | 40 | 70 | 50 | 50 | 100 |  |  |
| Cn1c(C(F)(F)F)cc(=O)n(-c2c(F)cc(Cl)c3cc(CCO)oc23)c1=O [Compound 239] | 90 | 100 | 100 | 80 | 70 | 100 | 80 | 90 | 100 | 100 | 95 | 60 | 100 | 100 |  | 100 | 100 | 100 |  |
| CC(=O)OC(C)(C)c1cc2c(Cl)cc(F)c(-n3c(=O)cc(C(F)(F)F)n(C)c3=O)c2o1 [Compound 253] | 100 | 100 | 100 | 100 | 95 | 100 | 100 | 100 | 100 | 100 | 95 | 100 | 100 | 100 |  | 100 | 100 | 100 |  |
| CCOC(=O)c1cc2c(Cl)ccc(-n3c(=O)cc(C(F)(F)F)n(C)c3=O)c2o1 [Compound 268] | 50 | 50 | 20 | 60 | 30 | 90 | 40 | 60 | 100 | 70 | 70 | 40 | 30 |  | 0 | 95 | 60 | 20 |  |
